US8546383B2, “Chiral fused [1,2]imidazo[4,5-c] ring compounds” (3M Innovative Properties Company, priority 2004, dated 2013)
Where a name gives a salt, the structure may show the parent alone.

For `C[C@H]1COCc2nc3c(N)nc4cc(CCC(=O)N(C)C)ccc4c3n21` [Example 64, 3-[(11S)-6-Amino-11-methyl-10,11-dihydro-8H-[1,4]oxazino[4′,3′:1,2]imidazo[4,5-c]quinolin-3-yl]-N,N-dimethylpropanamide], the melting point was 235 to 237 °C.
For `Nc1nc2ccccc2c2c1nc1n2[C@@H](C2CCOCC2)COC1` [Example 43, (11S)-11-Tetrahydro-2H-pyran-4-yl-10,11-dihydro-8H-[1,4]oxazino[4′,3′:1,2]imidazo[4,5-c]quinolin-6-amine], the melting point was 240.4 to 243.4 °C.
Work on `CC(C)[C@H]1COCc2nc3c(N)nc4ccc(O)cc4c3n21` [Example 20, (11S)-6-Amino-11-isopropyl-10,11-dihydro-8H-[1,4]oxazino[4′,3′:1,2]imidazo[4,5-c]quinolin-2-ol] yielded a melting point of 208 to 210 °C.
Compound `C[C@H](O)[C@H]1COCc2nc3c(N)nc4ccccc4c3n21` [Example 41, (1S)-1-[(11R)-6-amino-10,11-dihydro-8H-[1,4]oxazino[4′,3′:1,2]imidazo[4,5-c]quinolin-1′-yl]ethanol] has a melting point of 207.6 to 208.7 °C.
`C[C@@H]1COCc2nc3c(N)nc4c(c3n21)CCCC4` [Example 27] showed a melting point of 209 to 211 °C.
In the case of `C[C@H]1COCc2nc3c(N)nc4ccc(OCc5cscn5)cc4c3n21` [Example 54, (11S)-11-Methyl-2-(1,3-thiazol-4-ylmethoxy)-10,11-dihydro-8H-[1,4]oxazino[4′,3′:1,2]imidazo[4,5-c]quinolin-6-amine], the melting point is reported as 240 to 242 °C.
For `CC(C)(F)[C@H]1COCc2nc3c(N)nc4cc(O)ccc4c3n21` [Example 17, (11R)-6-Amino-11-(1-fluoro-1-methylethyl)-10,11-dihydro-8H-[1,4]oxazino[4′,3′:1,2]imidazo[4,5-c]quinolin-3-ol], the melting point was 219 to 221 °C.
For `CC(C)(F)[C@H]1COCc2nc3c(N)nc4ccccc4c3n21` [Example 11, (11R)-11-(1-Fluoro-1-methylethyl)-10,11-dihydro-8H-[1,4]oxazino[4′,3′:1,2]imidazo[4,5-c]quinolin-6-amine], the melting point was 242 to 244 °C.
With `Cc1nc(N)c2nc3n(c2c1C)[C@@H](C)COC3` [Example 44, (4S)-4,6,7-Trimethyl-3,4-dihydro-1H-pyrido[3′,4′:4,5]imidazo[2,1-c][1,4]oxazin-9-amine] the melting point was 264 to 267 °C.
In the case of `CN1CCN(C[C@H]2COCc3nc4c(N)nc5ccccc5c4n32)CC1` [Example 37, (11S)-11-[(4-Methylpiperazin-1-yl)methyl]-10,11-dihydro-8H-[1,4]oxazino[4′,3′:1,2]imidazo[4,5-c]quinolin-6-amine], the melting point is reported as 187 to 190 °C.
For `C[C@H]1COCc2nc3c(N)nc4ccc(O)cc4c3n21` [Example 21, (11S)-6-Amino-11-methyl-10,11-dihydro-8H-[1,4]oxazino[4′,3′:1,2]imidazo[4,5-c]quinolin-2-ol], the melting point was 262 to 264 °C.
`Nc1nc2ccccc2c2c1nc1n2[C@@H](COCc2ccc(F)cc2)COC1` [Example 45, (11S)-11-{[(4-Fluorobenzyl)oxy]methyl}-10,11-dihydro-8H-[1,4]oxazino[4′,3′:1,2]imidazo[4,5-c]quinolin-6-amine] showed a melting point of 134 to 137 °C.
With `C[C@@H](OCc1ccccc1)[C@H]1COCc2nc3c(N)nc4ccccc4c3n21` [Example 38, (11R)-11-[(1R)-1-(benzyloxy)ethyl]-10,11-dihydro-8H-[1,4]oxazino[4′,3′:1,2]imidazo[4,5-c]quinolin-6-amine] the melting point was 189 to 190.8 °C.
For `CC(C)[C@H]1COCc2nc3c(N)nc4c(c3n21)CCCC4` [Example 2, (11S)-11-Isopropyl-2,3,4,8,10,11-hexahydro-1H-[1,4]oxazino[4′,3′:1,2]imidazo[4,5-c]quinolin-6-amine], the melting point was 158 to 160 °C.
`CC(C)[C@H]1COCc2nc3c(N)nc4cc(OCCN5CCOCC5)ccc4c3n21` [Example 59, (11S)-11-Isopropyl-3-(2-morpholin-4-ylethoxy)-10,11-dihydro-8H-[1,4]oxazino[4′,3′:1,2]imidazo[4,5-c]quinolin-6-amine] showed a melting point of 194 to 195 °C.
`C[C@H]1COCc2nc3c(N)nc4cc(CCC(=O)N5CCOCC5)ccc4c3n21` [Example 63, (11S)-11-Methyl-3-(3-morpholin-4-yl-3-oxopropyl)-10,11-dihydro-8H-[1,4]oxazino[4′,3′:1,2]imidazo[4,5-c]quinolin-6-amine] showed a melting point of 245 to 247 °C.
With `Nc1nc2ccccc2c2c1nc1n2[C@@H](CCl)COC1` [Example 36, (11R)-11-(Chloromethyl)-10,11-dihydro-8H-[1,4]oxazino[4′,3′:1,2]imidazo[4,5-c]quinolin-6-amine] the melting point was 230 to 232 °C.
With `Nc1nc2ccccc2c2c1nc1n2[C@@H](c2cc(-c3ccc(F)cc3)no2)COC1` [Example 50, (11R)-11-[3-(4-Fluorophenyl)isoxazol-5-yl]-10,11-dihydro-8H-[1,4]oxazino[4′,3′:1,2]imidazo[4,5-c]quinolin-6-amine] the melting point was 261 to 262 °C.
Work on `C[C@H]1COCc2nc3c(N)nc4cc(O)ccc4c3n21` [Example 8, (11S)-6-Amino-11-methyl-10,11-dihydro-8H-[1,4]oxazino[4′,3′:1,2]imidazo[4,5-c]quinolin-3-ol] yielded a melting point greater than 250 °C.
For `C[C@H]1COCc2nc3c(N)nc4ccc(OCC(=O)N5CCOCC5)cc4c3n21` [Example 55, (11S)-11-Methyl-2-(2-morpholin-4-yl-2-oxoethoxy)-10,11-dihydro-8H-[1,4]oxazino[4′,3′:1,2]imidazo[4,5-c]quinolin-6-amine], the melting point was 226 to 228 °C.
For `Nc1nc2ccccc2c2c1nc1n2[C@@H](Cc2ccc(O)cc2)COC1` (as salt: hydrochloride) [Example 48, 4-{[(11S)-6-Amino-10,11-dihydro-8H-[1,4]oxazino[4′,3′:1,2]imidazo[4,5-c]quinolin-11-yl]methyl}phenol], the melting point was > 240 °C (dec.).
Work on `C[C@H]1CN(S(C)(=O)=O)Cc2nc3c(N)nc4ccccc4c3n21` [Example 23, (11S)-11-Methyl-9-(methylsulfonyl)-8,9,10,11-tetrahydropyrazino[1′,2′:1,2]imidazo[4,5-c]quinolin-6-amine] yielded a melting point of 258 to 261 °C.
In the case of `C[C@@H]1COCc2nc3c(N)nc4ccccc4c3n21` [Example 26], the melting point is reported as 280 to 282 °C.
For `CC1CCOCc2nc3c(N)nc4cc(Br)ccc4c3n21` (stereo not drawn) [Example 22, 3-Bromo-12-methyl-11,12-dihydro-8H,10H-[1,4]oxazepino[4′,3′:1,2]imidazo[4,5-c]quinolin-6-amine], the melting point was 247 to 248 °C.
`C[C@H]1COCc2nc3c(N)nc4cccnc4c3n21` [Example 15, (11S)-11-Methyl-10,11-dihydro-8H-[1,4]oxazino[4′,3′:1,2]imidazo[4,5-c][1,5]naphthyridin-6-amine] gave a melting point of 240 to 242 °C.
For `CC(C)[C@H]1COCc2nc3c(N)nc4cc(OCC(=O)N5CCOCC5)ccc4c3n21` [Example 58, (11S)-11-Isopropyl-3-(2-morpholin-4-yl-2-oxoethoxy)-10,11-dihydro-8H-[1,4]oxazino[4′,3′:1,2]imidazo[4,5-c]quinolin-6-amine], the melting point was 137 to 139 °C.
Work on `C[C@H]1COCc2nc3c(N)nc4c(c3n21)CCCC4` [Example 6, (11S)-11-Methyl-2,3,4,8,10,11-hexahydro-1H-[1,4]oxazino[4′,3′:1,2]imidazo[4,5-c]quinolin-6-amine] yielded a melting point of 209 to 211 °C.
`CC(C)(F)[C@H]1COCc2nc3c(N)nc4cccnc4c3n21` [Example 16, (11R)-11-(1-Fluoro-1-methylethyl)-10,11-dihydro-8H-[1,4]oxazino[4′,3′:1,2]imidazo[4,5-c][1,5]naphthyridin-6-amine] showed a melting point of 192 to 194 °C.
Compound `Nc1nc2ccccc2c2c1nc1n2[C@H](c2ccccc2)COC1` [Example 28] has a melting point of 284 to 286 °C.
For `CC(C)(O)[C@H]1COCc2nc3c(N)nc4ccccc4c3n21` [Example 13, 2-[(11R)-6-Amino-10,11-dihydro-8H-[1,4]oxazino[4′,3′:1,2]imidazo[4,5-c]quinolin-11-yl]propan-2-ol], the melting point was 216 to 217 °C.
In the case of `CC(C)(O)[C@H]1COCc2nc3c(N)nc4cccnc4c3n21` [Example 33, 2-[(11R)-6-Amino-10,11-dihydro-8H-[1,4]oxazino[4′,3′:1,2]imidazo[4,5-c]-1,5-naphthyridin-11-yl]propan-2-ol], the melting point is reported as 242 to 246 °C.
Work on `CC(C)[C@@H]1COCc2nc3c(N)nc4ccccc4c3n21` [Example 25] yielded a melting point of 248 to 249 °C.
Work on `Nc1nc2ccccc2c2c1nc1n2[C@@H](c2ccccc2)COC1` [Example 9, (11S)-11-Phenyl-10,11-dihydro-8H-[1,4]oxazino[4′,3′:1,2]imidazo[4,5-c]quinolin-6-amine] yielded a melting point of 284 to 286 °C.
Compound `Nc1nc2ccccc2c2c1nc1n2[C@@H](C2CCCCC2)COC1` [Example 47, (11S)-11-Cyclohexyl-10,11-dihydro-8H-[1,4]oxazino[4′,3′:1,2]imidazo[4,5-c]quinolin-6-amine] has a melting point of 228 to 230 °C.
With `CC(C)(F)[C@H]1COCc2nc3c(N)nc4c(c3n21)CCCC4` [Example 12, (11R)-11-(1-Fluoro-1-methylethyl)-2,3,4,8,10,11-hexahydro-1H-[1,4]oxazino[4′,3′:1,2]imidazo[4,5-c]quinolin-6-amine] the melting point was 195.5 to 197 °C.
Work on `C#CCOc1ccc2nc(N)c3nc4n(c3c2c1)[C@@H](C)COC4` [Example 51, (11S)-11-Methyl-2-(prop-2-ynyloxy)-10,11-dihydro-8H-[1,4]oxazino[4′,3′:1,2]imidazo[4,5-c]quinolin-6-amine] yielded a melting point of 184 to 186 °C.
`Nc1nc2ccccc2c2c1nc1n2[C@@H](Cc2ccccc2)COC1` [Example 10, (11S)-11-Benzyl-10,11-dihydro-8H-[1,4]oxazino[4′,3′:1,2]imidazo[4,5-c]quinolin-6-amine] showed a melting point of 170 to 177 °C.
Compound `CC(C)(O)[C@@H]1COCc2nc3c(N)nc4ccccc4c3n21` (as salt: hydrochloride) [Example 31] has a melting point of 218 to 219 °C.
`CCOc1ccc2nc(N)c3nc4n(c3c2c1)[C@@H](C)COC4` [Example 57, (11S)-2-Ethoxy-11-methyl-10,11-dihydro-8H-[1,4]oxazino[4′,3′:1,2]imidazo[4,5-c]quinolin-6-amine] gave a melting point of 187 to 188 °C.
